US20230212517A1, “METHODS FOR GENERATING HEMATOPOIETIC STEM CELLS” (The Brigham and Women's Hospital, Inc., priority 2018, published 2023)
“Also recorded” adds a separate entry of the source.

What was measured:
[1] = tested on: zebrafish embryos; experiment: HSPC marker expression in chemically treated embryos (whole mount in situ hybridization); type: in vivo
Description: (§1) Zebrafish embryos were treated with the following chemical modulators in E3 fish media: 100 uM L-NAME (Fisher Scientific), 50 uM Digitoxigenin (Sigma), 25-50 uM Yoda1 (Cayman Chemical), 1 uM Nanaomycin (Nana; Fisher Scientific), 100 uM Gadolinium chloride (GdCl3; Sigma), 5-10 uM 4α-phorbol 12, 13-didecanaote (4Apdd; Sigma), or GSK205 (10 uM).
Whole mount in situ hybridizations was performed as previously described.

[2] = tested on: E11.5 AGM cells; experiment: Hematopoietic colony formation unit (CFU) and FACS assays on E11.5 AGM cells; type: cell-based, mouse; details: for effect on cyclic strain-induced endothelial-to-HSC transition / hematopoietic progenitor formation: in the presence of cyclic strain (stretch)
Description: Pulsating blood vessels like conditions were stimulated in vitro using FLEXCELL FX-4000 cell stretching bioreactor machine. To analyze roles of pharmacological targets in regulating the endothelial-to-HSC transition, mouse embryo-derived AGM or whole mouse embryo were exposed ex vivo with biomechanical stretching, chemicals, or drugs. Next, hematopoietic colony formation assays were performed by incubating mouse AGM-derived cells in StemCell M3434 media for seven days. Serial transplantation of AGM-derived HSCs in lethally irradiated SJL mice were performed. The stem cell frequency upon biomechanical stretching was analyzed using a limiting dilution assay. To characterize properties of AGM-HSC-derived blood cells in primary transplants, percentage chimerism and reconstitution was measured using FACS, globin transcripts were analyzed using quantitative reverse transcriptase-PCR, myeloperoxidase amount was measured using PICOKINE ELISA kit, TCR-β rearrangement was analyzed using PCR for TCR-β locus, pre-immune IG detection was analyzed using Thermo-Fisher Mouse Ig Isotyping kit, and delayed-type hypersensitivity was analyzed by injecting sheep RBC (Rockland Immunochemicals) in the footpad of pre-sensitized mice.
E11.5 AGM were harvested from C57BL6/J Cd45.2 mouse embryos, and a single cell suspension of a three-embryo equivalent of cells was seeded on each well of a BioFlex six-well culture plate (FlexCell). We cultured cells overnight with the application of cyclic strain (Flexcell® FX4000™ Tension System) and/or treatment with chemical modulators (25-50 μM Yoda1, 1 μM Nanaomycin, 100 μM GdCl3, 1 uM GsMTx4, 5-20 μM 4αPDD, 10 uM GSK205). Next, harvested cells were used to perform transplant, fluorescence-activated cell sorting (FACS) analysis, and colony-forming unit (CFU) assays.
E11.5 mouse embryos were harvested from the uterus of the time-mated pregnant female, into sterile glass vials containing FBS, 1 mM glucose, 1% Penicillin-Streptomycin, and/or the selected chemical modulator (25-50 μM Yoda1, 1 μM Nanaomycin, 5-20 μM 4αPDD, or 10 uM GSK205). We placed glass vials in the ex vivo incubator (BTC Engineering, Cambridge, UK) consisting of a roller apparatus (rotating ˜30 rpm), constant gas supply (21% O2, 5% CO2, balance N2) and constant temperature at 37° C. After 24 hours, AGM were harvested to analyze the formation of hematopoietic cells by FACS and CFU assays.
For CFU assays, cells from AGM explant or ex vivo were plated in METHOCULT GF M3434 media (StemCell Technologies). Seven days after seeding, we analyzed their capacity to make granulocyte, erythroid, macrophage, megakaryocyte (GEMM), granulocyte macrophage (GM), granulocyte (G), macrophage (M), and erythroid (E) colonies.
AGM cells from explants and ex vivo were stained with Sca1-Pacific-Blue (E13-161.7, Biolegend) and Flk1-APC-Cy7 (Avas 12α1, BD). Blood from transplanted mice was stained with the following antibody cocktail: Cd45.2-Pacific-Blue (104, Biolegend), Cd45.1-FITC (A20, Biolegend), Cd3-PE (145-2C11, Biolegend), Cd8-PE (53-6.7, Biolegend), Mac1-APC (M1/70, Biolegend), Gr1-APC (108412, Biolegend), Cd19-APC-CY7 (6D5, Biolegend), B220-APC-CY7 (RA3-6B2, Biolegend).

[3] = tested on: cd41:eGFP+ HSCs emerging from flk1:mCherry+ endothelial cells; experiment: Time-lapse confocal imaging of cd41:eGFP+ HSCs emerging from flk1:mCherry+ endothelial cells in transgenic embryos; type: in vivo, zebrafish
Description: Mice were purchased Cd45.2 (C57BL6/J) and Cd45.1 (SJL) from The Jackson Laboratory and zebrafish morpholinos from GeneTools. Microangiography was performed by injecting fluorescent-labeled dextran dye in the atrium of zebrafish heart and its passage was recorded using live imaging. Immunostaining of zebrafish heart and mouse AGM were analyzed using an inverted fluorescent microscope. Cardiac tamponade, heart rate, and pulse frequency were analyzed in zebrafish embryos using bright field imaging or time-lapse confocal microscopy. The movement of red blood cells in blood vessels was analyzed as well as the endothelial-to-HSC transition in zebrafish transgenic embryos using time-lapse confocal imaging.
as §1
cd41: eGFP were crossed with flk1:mCherry zebrafish and flk1:mCherry with lcr:eGFP zebrafish and injected morpholino in their transgenic embryos. Transgenic embryos were mounted in low-melting-point agarose and a spinning-disk confocal microscope was used to perform time-lapse confocal imaging of cd41:eGFP^+ HSCs emerging from flk1^+ endothelium from 30 to 42 hpf. The relative movement of lcr:eGFP^+ red blood cells was analyzed in the context of flk1:mCherry^+ endothelium. We performed image analysis using IMARIS (Bitplane) software.

| Compound | HSPC marker expression / HSPC formation ([1]; control embryos) | effect on cyclic strain-induced endothelial-to-HSC transition / hematopoietic progenitor formation [2] | HSPC marker expression / HSPC formation ([1]; cdh5-MO embryos) | effect on Piezo1 activation (Yoda1)-mediated increase in HSC formation ([3]; embryos concurrently treated with or without Yoda1, also whole mount in situ hybridization) | specificity for Dnmt3b over Dnmt3a ([3]; transgenic embryos 26-42 hpf) | phenotype of hematopoietic cells after treatment ([2]; E11.5 AGM cells) | effect on Piezo1 activation (Yoda1)-induced endothelial-to-HSC transition ([2]; in the presence of Yoda1) |
| --- | --- | --- | --- | --- | --- | --- | --- |
| [Cl][Gd]([Cl])[Cl] [GdCl3, Gadolinium chloride] | attenuated HSPC expression in zebrafish embryos to the level of sih-MO embryos | attenuated |  |  |  |  |  |
| COC(=O)[C@@H](N)CCCNC(=N)N[N+](=O)[O-] [L-NAME] | attenuates HSPC formation |  | produce HSCs; also recorded: does not impact HSPC formation |  |  |  |  |
| CC1OC(CC(=O)O)CC2=C1C(=O)c1c(O)cccc1C2=O (stereo not drawn) [Nanaomycin] | attenuated HSPC marker expression | attenuates the endothelial-to-HSC transition | attenuated HSPC marker expression | attenuated the Piezo1 activation-mediated increase in HSC formation | specificity of Nanaomycin for Dnmt3b over Dnmt3a | reverts hematopoietic cells into phenotypic endothelial cells | attenuates the endothelial-to-HSC transition |
| GsMtX4 |  | attenuates the inductive impact of cyclic strain on the endothelial-to-HSC transition |  |  |  |  |  |
